Key:
Assay in all cases: relative viability (nuclei count vs DMSO), 5 days (fraction); higher = more cells survive
Apatinib + Linsitinib = compound: N#CC1(c2ccc(NC(=O)c3cccnc3NCc3ccncc3)cc2)CCCC1 [Apatinib] + C[C@]1(O)C[C@@H](c2nc(-c3ccc4ccc(-c5ccccc5)nc4c3)c3c(N)nccn32)C1 [Linsitinib] (partner 1 µM)
Summary of the method: (§1)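 Lung cancer cell lines, seeded in 1536-well plates, were treated the following day by pin tool with a single drug or with five library-drug doses (not always all listed) in √10 steps on top of a fixed anchor-drug dose. Cells were fixed and nuclei stained in one step after 5 days, and nuclei were counted. Relative viability is the nuclei count for treated wells divided by that for vehicle wells, reported as medians of duplicate plates.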

Metformin + Olaparib = compound: CN(C)C(=N)NC(=N)N [Metformin] + O=C(c1cc(Cc2n[nH]c(=O)c3ccccc23)ccc1F)N1CCN(C(=O)C2CC2)CC1 [Olaparib] (partner 8 µM)
Summary of the method: as §1

Metformin + Alpelisib = compound: CN(C)C(=N)NC(=N)N [Metformin] + Cc1nc(NC(=O)N2CCC[C@H]2C(N)=O)sc1-c1ccnc(C(C)(C)C(F)(F)F)c1 [Alpelisib] (partner 2 µM)
Summary of the method: as §1

Apatinib + Bortezomib = compound: N#CC1(c2ccc(NC(=O)c3cccnc3NCc3ccncc3)cc2)CCCC1 [Apatinib] + CC(C)C[C@H](NC(=O)[C@H](Cc1ccccc1)NC(=O)c1cnccn1)B(O)O [Bortezomib] (partner 0.002 µM)
Summary of the method: as §1

Cell Line | relative viability (Apatinib + Linsitinib; first compound 0.08 µM) | relative viability (Apatinib + Linsitinib; first compound 0.253 µM) | relative viability (Apatinib + Linsitinib; first compound 0.8 µM) | relative viability (Apatinib + Linsitinib; first compound 2.53 µM) | relative viability (Apatinib + Linsitinib; first compound 8 µM) | relative viability (Metformin + Olaparib; first compound 10 µM) | relative viability (Metformin + Olaparib; first compound 31.62 µM) | relative viability (Metformin + Olaparib; first compound 100 µM) | relative viability (Metformin + Olaparib; first compound 316.23 µM) | relative viability (Metformin + Olaparib; first compound 1000 µM) | relative viability (Metformin + Alpelisib; first compound 10 µM) | relative viability (Metformin + Alpelisib; first compound 31.62 µM) | relative viability (Metformin + Alpelisib; first compound 100 µM) | relative viability (Metformin + Alpelisib; first compound 316.23 µM) | relative viability (Metformin + Alpelisib; first compound 1000 µM) | relative viability (Apatinib + Bortezomib; first compound 0.08 µM) | relative viability (Apatinib + Bortezomib; first compound 0.253 µM) | relative viability (Apatinib + Bortezomib; first compound 0.8 µM) | relative viability (Apatinib + Bortezomib; first compound 2.53 µM) | relative viability (Apatinib + Bortezomib; first compound 8 µM)
NCI-H2126 | 0.733 | 0.69 | 0.675 | 0.631 | 0.652 | 0.767 | 0.88 | 0.911 | 0.833 | 0.856 | 0.695 | 0.752 | 0.755 | 0.716 | 0.755 | 1.11 | 1.01 | 1.08 | 1.06 | 1.06
Calu-6 | 0.948 | 1 | 0.912 | 0.928 | 0.85 | 0.459 | 0.416 | 0.421 | 0.48 | 0.467 | 0.889 | 0.84 | 0.836 | 0.73 | 0.879 | 0.969 | 1.12 | 0.96 | 0.789 | 0.814
NCI-H2228 | 0.708 | 0.501 | 0.521 | 0.629 | 0.629 | 0.399 | 0.344 | 0.483 | 0.802 | 0.578 | 0.917 | 0.85 | – | 0.542 | 0.898 | 1.27 | 1.17 | 1.17 | 1.02 | 0.93
IA-LM | 0.56 | 0.383 | 0.763 | 0.417 | 0.341 | 0.864 | 0.94 | 0.85 | 0.658 | 0.917 | – | 1.11 | 0.906 | 0.882 | 0.88 | 0.952 | 0.976 | 0.839 | 0.536 | 0.183

From the supplement of paper PMC10307832
